SMILES strings stand for the structures.

This experiment has as its target T1, Phosphatidylinositol 4,5-bisphosphate 3-kinase catalytic subunit delta isoform (Homo sapiens, UniProt O00329).
T1 sequence (O00329 whole entry): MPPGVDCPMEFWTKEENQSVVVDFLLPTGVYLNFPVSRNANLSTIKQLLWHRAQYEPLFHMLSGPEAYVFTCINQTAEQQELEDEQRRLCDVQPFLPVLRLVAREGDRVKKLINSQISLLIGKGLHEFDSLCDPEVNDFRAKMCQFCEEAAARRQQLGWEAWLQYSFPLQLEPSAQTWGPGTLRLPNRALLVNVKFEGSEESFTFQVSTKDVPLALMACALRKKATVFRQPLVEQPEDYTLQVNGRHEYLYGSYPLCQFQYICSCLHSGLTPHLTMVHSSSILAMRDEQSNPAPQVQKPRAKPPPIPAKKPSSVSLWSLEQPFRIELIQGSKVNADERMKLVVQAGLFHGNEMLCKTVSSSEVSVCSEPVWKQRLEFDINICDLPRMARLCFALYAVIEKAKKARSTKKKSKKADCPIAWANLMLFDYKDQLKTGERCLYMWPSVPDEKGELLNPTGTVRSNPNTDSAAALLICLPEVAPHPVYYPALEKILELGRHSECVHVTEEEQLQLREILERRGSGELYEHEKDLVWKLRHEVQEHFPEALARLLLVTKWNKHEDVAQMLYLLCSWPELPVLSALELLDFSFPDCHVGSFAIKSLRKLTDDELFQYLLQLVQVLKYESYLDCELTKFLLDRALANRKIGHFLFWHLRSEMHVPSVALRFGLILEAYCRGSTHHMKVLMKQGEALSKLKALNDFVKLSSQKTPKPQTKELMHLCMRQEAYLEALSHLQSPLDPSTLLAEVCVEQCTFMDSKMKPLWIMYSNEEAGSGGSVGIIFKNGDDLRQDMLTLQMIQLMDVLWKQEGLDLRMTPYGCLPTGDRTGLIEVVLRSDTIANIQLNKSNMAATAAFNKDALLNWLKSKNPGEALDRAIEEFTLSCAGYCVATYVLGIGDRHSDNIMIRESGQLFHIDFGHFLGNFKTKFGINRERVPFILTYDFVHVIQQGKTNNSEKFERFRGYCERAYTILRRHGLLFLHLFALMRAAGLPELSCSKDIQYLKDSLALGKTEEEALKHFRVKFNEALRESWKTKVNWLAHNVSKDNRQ
As to the kind of experiment: PI3Kdelta Scintillation Proximity Assay: [γ-33P]ATP (10mCi/mL) was purchased from Perkin-Elmer (Waltham, Mass.). Lipid kinase substrate, D-myo-Phosphatidylinositol 4,5-bisphosphate (PtdIns(4,5)P2)D (+)-sn-1,2-di-O-octanoylglyceryl, 3-O-phospho linked (PIP2), CAS 204858-53-7, was purchased from Echelon Biosciences (Salt Lake City, Utah). PI3Kδ (p110δ/p85α) was purchased from Millipore (Bedford, Mass.). ATP, MgCl2, DTT, EDTA, MOPS and CHAPS were purchased from Sigma-Aldrich (St. Louis, Mo.). Wheat Germ Agglutinin (WGA) YSi SPA Scintillation Beads was purchased from GE healthcare life sciences (Piscataway, N.J.).The kinase reaction was conducted in polystyrene 384-well matrix white plate from Thermo Fisher Scientific in a final volume of 25 μL. Inhibitors were first diluted serially in DMSO and added to the plate wells before the addition of other reaction components. The final concentration of DMSO in the assay was 0.5%. The PI3K assays were carried out at room temperature in 20 mM MOPS, pH 6.7, 10 mM MgCl2, 5 mM DTT and CHAPS 0.03%.Reactions were initiated by the addition of ATP, the final reaction mixture consisted of 20 μM PIP2, 20 μM ATP, 0.2 μCi [γ-33P] ATP, 4 nM PI3Kδ. Reactions were incubated for 210 min and terminated by the addition of 40 μL SPA beads suspended in quench buffer: 150 mM potassium phosphate pH 8.0, 20% glycerol. 25 mM EDTA, 400 μM ATP. […]. On the technique in general: In a scintillation proximity assay essentially only radioactivity close to the scintillant gives light.

The term IC50 denotes the midpoint of a concentration-inhibition curve. Consider `Cc1nn(C(C)c2cc(Cl)c(F)c3c2O[C@H](C)CN(C2CC(C(=O)O)C2)C3)c2ncnc(N)c12` (stereo partly specified), for which the concentration for half-maximal inhibition (IC50) was below 100 nM.

For the origin of these results see ChEMBL document CHEMBL5726842, “Bicyclic azaheterocyclobenzylamines as PI3K inhibitors” (2019).
